The source of these data is patent publication US4777049A, “Constant release system with pulsed release” (priority 1987, dated 1988).

Converted amounts (≈) assume the structure as drawn. Read-outs that look alike come from different tables or passages of the source.

The conditions of series [1]: cited from earlier work.
The test system of the next series is gonadotropin secretion. The following applies: Drugs, Vol. 23, 207-226, 1982, cited from earlier work.

Consider `C[C@H]1C[C@@H]2[C@H]([C@@H](O)C[C@@]3(C)[C@H]2CC[C@]3(O)C(=O)CO)[C@@]2(C)C=CC(=O)C=C12` [methylprednisolone], for which the “medical effect of pulsed treatment” value in series [1] (collagenic and progressing glomerulonephritis) is “beneficial medical effect”. Turning to insulin, the “medical effect of pulsed treatment” value in series [1] (control of hyperglycemia) is “beneficial medical effect”. Regarding `CO[C@H]1/C=C/O[C@@]2(C)Oc3c(C)c(O)c4c(O)c(c(/C=N/N5CCN(C)CC5)c(O)c4c3C2=O)NC(=O)/C(C)=C\C=C\[C@H](C)[C@H](O)[C@@H](C)[C@@H](O)[C@@H](C)[C@H](OC(C)=O)[C@@H]1C` [rifampicin], the “medical effect of pulsed treatment” value in series [1] (leprosy) is listed as “beneficial medical effect”. For `C[C@]12CC[C@@H]3c4ccc(O)cc4CC[C@H]3[C@@H]1CC[C@@H]2O` [estradiol], the figures for the “effect on gonadotropin secretion” value in the series with gonadotropin secretion (high pulsed doses) and with gonadotropin secretion (low pulsed dose) were “stimulates the ovulating surge” and “inhibits”, respectively. As to `CC[C@H](C)[C@@H]1NC(=O)[C@H](Cc2ccc(O)cc2)NC(=O)[C@@H](N)CSSC[C@@H](C(=O)N2CCC[C@H]2C(=O)N[C@@H](CC(C)C)C(=O)NCC(N)=O)NC(=O)[C@H](CC(N)=O)NC(=O)[C@H](CCC(N)=O)NC1=O` [oxytocin], in series [1] (induction of labor), the “medical effect of pulsed treatment” value is given as “beneficial medical effect”. Turning to `CC(C)(C)NCC(O)c1ccc(O)c(CO)c1` (centres unmarked) [salbutamol], the solubility in “physchem” (distilled water, water) worked out at 275 mg/mL (≈ 1150 mM); in “physchem” (saturated sodium chloride solution), 16 mg/mL (≈ 66.9 mM).
